# Measurements as given in PubChem BioAssay (NCI).
#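 Cultured in 96-well plates, cells were exposed to test compound for 48 hours across five concentrations. The concentration for full growth arrest is given as TGI.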
# Legend:
# Experiment in all cases: growth of human tumour cells (NCI), 48 h
# RPMI-8226 leukemia = system: RPMI-8226 leukemia
# HOP-92 NSCLC = system: HOP-92 NSCLC
# ACHN renal = system: ACHN renal
# A498 renal = system: A498 renal
# SR leukemia = system: SR leukemia
# BT-549 breast = system: BT-549 breast
# UO-31 renal = system: UO-31 renal
# SNB-19 CNS = system: SNB-19 CNS
# EKVX NSCLC = system: EKVX NSCLC
# NCI-H522 lung = system: NCI-H522 lung
# MCF7 breast = system: MCF7 breast
Structure (SMILES),TGI (RPMI-8226 leukemia),TGI (HOP-92 NSCLC),TGI (ACHN renal),TGI (A498 renal),TGI (SR leukemia),TGI (BT-549 breast),TGI (UO-31 renal),TGI (SNB-19 CNS),TGI (EKVX NSCLC),TGI (NCI-H522 lung),TGI (MCF7 breast)
OC1(c2ccc(-c3ccccc3)cc2)c2ccccc2C2=NCCN21 (configuration not stated),> 100 µM,> 100 µM,43.9 µM,> 100 µM,> 100 µM,> 100 µM,> 100 µM,38.3 µM,–,–,–
CCCC(CCC(N)=O)(CCC(N)=O)[N+](=O)[O-],> 100 µM,> 100 µM,> 100 µM,–,> 100 µM,> 100 µM,> 100 µM,> 100 µM,> 100 µM,> 100 µM,> 100 µM
CS(=O)(=O)OCCN(CCOS(C)(=O)=O)c1ccc(C=Nc2cccc(Cl)c2)cc1,32.6 µM,> 92.7 µM,0.651 µM,13.8 µM,0.307 µM,53.3 µM,> 100 µM,> 46.2 µM,46.6 µM,2.84 µM,> 100 µM
CCOC(=O)c1c(N=P(c2ccccc2)(c2ccccc2)c2ccccc2)nnc(-c2ccccc2)c1-c1ccccc1,–,> 100 µM,> 100 µM,99.3 µM,> 100 µM,–,> 100 µM,> 100 µM,> 100 µM,> 100 µM,> 100 µM
CC1(C)OC2[C@@H](CO[C@@]3([C@@H](O)CCO)OC(C)(C)O[C@@H]23)O1 (some centres not stated),> 100 µM,> 100 µM,> 100 µM,–,> 100 µM,> 100 µM,> 100 µM,> 100 µM,> 100 µM,> 100 µM,> 100 µM
C/C(=N\N=C(\N)SB(F)F)c1ccc2ccccc2c1,–,> 100 µM,> 100 µM,> 100 µM,> 100 µM,> 100 µM,> 100 µM,> 100 µM,> 100 µM,72 µM,> 100 µM
Cn1c2ccccc2c2c3c(c4c5ccccc5n(C)c4c21)C(=O)NC3=O,> 100 µM,> 100 µM,–,> 44.2 µM,> 100 µM,> 100 µM,> 100 µM,49.6 µM,> 100 µM,> 86.7 µM,> 100 µM
O=C(O)Cc1ccc(Nc2nc3cc(C(F)(F)F)ccc3nc2C(=O)O)cc1,–,> 100 µM,> 100 µM,> 100 µM,> 100 µM,> 100 µM,> 100 µM,> 100 µM,> 100 µM,> 100 µM,> 100 µM
COC(CN(C(C)=O)C1CCC2(SCCS2)c2[nH]c3ccccc3c21)OC (configuration not stated),> 100 µM,> 100 µM,> 100 µM,> 100 µM,> 100 µM,> 100 µM,> 100 µM,> 100 µM,> 100 µM,> 100 µM,> 100 µM
COc1ccc2nc(-c3ccccc3)cc(OCC(=O)O)c2c1,> 100 µM,> 100 µM,> 100 µM,> 100 µM,> 100 µM,> 100 µM,51.3 µM,> 100 µM,> 100 µM,> 100 µM,> 100 µM
CN1C/C(=C\c2cccs2)C(O)/C(=C/c2cccs2)C1 (configuration not stated),89.9 µM,> 100 µM,> 100 µM,> 100 µM,–,> 100 µM,> 100 µM,> 100 µM,> 100 µM,> 100 µM,> 100 µM
c1ccc(C(NCC2CCO2)(c2ccccc2)c2ccccc2)cc1 (configuration not stated),> 100 µM,32.8 µM,29 µM,36.1 µM,> 100 µM,38.7 µM,25.3 µM,27.6 µM,30.8 µM,28.1 µM,31.7 µM
CCN1CCC(O)(c2ccc(Oc3ccc(F)cc3)cc2)C(C(=O)c2ccc(Oc3ccc(F)cc3)cc2)C1 (configuration not stated),8.03 µM,24.4 µM,26.8 µM,–,6.5 µM,29.1 µM,–,29.6 µM,31.8 µM,–,26 µM
O=C1/C(=C\c2cccc(Oc3ccccc3)c2)SC(c2ccccc2)N1c1ccccc1 (configuration not stated),50.3 µM,> 100 µM,> 100 µM,> 100 µM,37.2 µM,> 100 µM,> 100 µM,> 100 µM,> 100 µM,> 100 µM,> 100 µM
CSc1ccc(-c2cc(-c3nc4ccccc4[nH]3)no2)cc1,98 µM,> 100 µM,> 100 µM,> 100 µM,> 100 µM,55.5 µM,43.5 µM,> 100 µM,> 100 µM,69.5 µM,33.8 µM
CN(C)CCNC(=O)c1ccc(NCCCN(C)CCCNc2ccc(C(=O)NCCN(C)C)c3[nH]c4ccccc4c(=O)c23)c2c(=O)c3ccccc3[nH]c12,0.419 µM,3.82 µM,1.71 µM,0.502 µM,0.532 µM,1.63 µM,1.9 µM,0.419 µM,0.674 µM,0.143 µM,0.44 µM
COc1c(/C=C/C(C)(C)O)cc(C2CC(=O)c3c(O)cc(O)cc3O2)cc1CC=C(C)C (configuration not stated),28.4 µM,17.8 µM,14.3 µM,16.8 µM,–,15.8 µM,1.6 µM,18.6 µM,–,18.6 µM,15.3 µM
COC(=O)c1ccc(/C=C2\Oc3ccccc3C2=O)cc1,> 100 µM,–,> 100 µM,–,> 100 µM,> 100 µM,> 100 µM,> 100 µM,> 100 µM,> 100 µM,> 100 µM
O=C(/C=C/c1ccc(-c2ccccc2)cc1)NCc1ccc(C(=O)NCc2ccccc2)cc1,–,> 100 µM,> 100 µM,> 100 µM,–,> 100 µM,> 100 µM,> 100 µM,> 100 µM,> 100 µM,> 100 µM
CCOC(=O)c1nnsc1N/N=C\c1ccc([N+](=O)[O-])cc1,> 100 µM,–,> 100 µM,–,–,> 100 µM,> 100 µM,> 100 µM,> 100 µM,> 100 µM,> 100 µM
COc1cc2c(cc1OC)C(=O)N(c1ccc(O)cc1)C2=O,> 100 µM,> 100 µM,> 100 µM,> 100 µM,> 100 µM,> 100 µM,–,> 100 µM,> 100 µM,> 100 µM,> 100 µM
